Source: article PMC12652692, “Synthesis and In Vitro Anticancer Evaluation of Novel Phosphonium Derivatives of Chrysin” (International Journal of Molecular Sciences, 2025)

Assays:
Test in all cases: NCI60 five-dose screen
Type in all cases: cell-based
HL-60(TB) = settings: Homo sapiens, Leukemia
Experimental: (§1) Since all new conjugates (3a–h) had notable antiproliferative activities on several tumor cell lines in the course of the one-dose screening, they were subjected to a five-dose test. […] J. Mol. Sci. 2025, 26, 11063 10 of 10 S.3. NCI60 Screening A detailed description of the NCI screening procedures can also be found on the website of NCI [39], and in our previous work. S.3.1. One-Dose Screen All candidates were examined at first at a single high dose (10 μM) in the full NCI60 cell panel. The value reported for the one-dose test is growth relative to the no-drug control and relative to the time zero number of cells. This made possible the disclosure of both growth inhibition (numbers between 0 and 100) and lethality (numbers less than 0). For example, a value of 100 means no growth inhibition. A value of 20 would mean 80% growth inhibition. A value of 0 means no net growth over the course of the analysis. A value of −20 would mean 20% lethality. A value of −100 means all cells are dead. S.3.2. […] The human tumor cell lines of the cancer screening panel were grown in RPMI 1640 medium containing 5% fetal bovine serum and 2 mM l-glutamine. Characteristically, cells were injected in 96-well microtiter plates in 0.1 mL at plating densities ranging from 5000 to 40,000 cells/well, depending on the doubling time of individual cell lines. After cell inoculation, the microtiter plates were incubated at 37 °C, 5% carbon dioxide, 95% air, and 100% relative humidity for 24 hours before the addition of tested compounds. After 24 hours, 2 plates of each cell line were fixed in situ with Cl3COOH (TCA), to represent a measurement of the cell population for each cell line at the time of drug addition (tz). Tested compounds were solubilized in DMSO at 400-fold the desired final maximum test concentration and stored frozen before application. In the course of the drug addition, an aliquot of frozen concentrate was thawed and diluted to twice the desired final maximum test concentration with a complete medium containing 50 μg mL−1 gentamicin. Additional four, 10-fold or ½ log serial dilutions were produced to furnish a total of five drug concentrations plus control. Aliquots of 0.1 mL of these different drug dilutions were added to the appropriate microtiter wells already containing 0.1 mL of medium, resulting in the required final drug concentrations. Following drug addition, the plates were incubated at 37 °C, 5% carbon dioxide, 95% air, and 100% relative humidity for an additional 48 hours. For adherent cells, the test was finished by the addition of cold Cl3COOH. Cells were fixed in situ by the addition of 50 μL of cold 50% (w/v) Cl3COOH, and incubated at 4 °C for 1 hour. The supernatant was discarded, and the plates were washed with H2O (5×) and dried in air. Sulforhodamine B (SRB) solution (0.1 mL) at 0.4% (w/v) in 1% CH3COOH was added to each well, and plates were incubated at RT for 10 min. After staining, the unbound dye was removed by washing five times with 1% CH3COOH, and the plates were dried in the air. The bound stain is afterward solubilized with a 10 mM trizma base, and the absorbance is read on an automated plate reader at λ = 515 nm. Utilizing the seven absorbance measurements [time zero (tz), control growth (c), and test growth in the presence of the drug at the five concentration levels (ti)], the percentage growth was determined at each of the drug concentration levels. Growth inhibition (%) was calculated as: [(ti − tz)/(c − tz)] × 100, for concentrations where ti ≥ tz (1) [(ti − tz)/(tz)] × 100, for concentrations where ti < tz. (2) Three dose‒response parameters were calculated as follows. GI50 (growth inhibition of 50%) was determined from Equation (3), which is the drug concentration resulting in a 50% reduction in the net protein increase (as measured by SRB staining) in control cells in the course of the drug incubation. [(ti − tz)/(c − tz)] × 100 = 50 (3)

MDA-MB231ATCC = settings: Homo sapiens, MDA-MB-231, Breast Cancer
Experimental: as §1

NCI-H23 = settings: Homo sapiens; NCI-H23, Non-small-Cell Lung Cancer
Experimental: as §1

NCI-H322M = settings: Homo sapiens, Non-small-Cell Lung Cancer
Experimental: as §1

OVCAR-5 = settings: Homo sapiens; OVCAR-5, Ovarian Cancer
Experimental: as §1

OVCAR-3 = settings: Homo sapiens; OVCAR-3, Ovarian Cancer
Experimental: as §1

SNB-19 = settings: Homo sapiens; SNB-19, CNS Cancer
Experimental: as §1

MDA-MB-468 = settings: Homo sapiens; MDA-MB-468, Breast Cancer
Experimental: as §1

A498 = settings: Homo sapiens; A498, Renal Cancer
Experimental: as §1

SR = settings: Homo sapiens, Leukemia
Experimental: as §1

HCC-2998 = settings: Homo sapiens; HCC-2998, Colon Cancer
Experimental: as §1

HS 578T = settings: Homo sapiens, Breast Cancer
Experimental: as §1

SK-MEL-2 = settings: Homo sapiens; SK-MEL-2, Melanoma
Experimental: as §1

HCT-15 = settings: Homo sapiens; HCT-15, Colon Cancer
Experimental: as §1

MOLT-4 = settings: Homo sapiens; MOLT-4, Leukemia
Experimental: as §1

SF-268 = settings: Homo sapiens; SF-268, CNS Cancer
Experimental: as §1

EKVX = settings: Homo sapiens, Non-small-Cell Lung Cancer
Experimental: as §1

ACHN = settings: Homo sapiens, Renal Cancer
Experimental: as §1

M14 = settings: Homo sapiens; M14, Melanoma
Experimental: as §1

NCI-H460 = settings: Homo sapiens; NCI-H460, Non-small-Cell Lung Cancer
Experimental: as §1

TK-10 = settings: Homo sapiens; TK-10, Renal Cancer
Experimental: as §1

SF-295 = settings: Homo sapiens; SF-295, CNS Cancer
Experimental: as §1

CCRF-CEM = settings: Homo sapiens, Leukemia
Experimental: as §1

SMILES | GI50 (HL-60(TB)) [nM] | GI50 (MDA-MB231ATCC) [nM] | GI50 (NCI-H23) [nM] | GI50 (NCI-H322M) [nM] | GI50 (OVCAR-5) [nM] | GI50 (OVCAR-3) [nM] | GI50 (SNB-19) [nM] | GI50 (MDA-MB-468) [nM] | GI50 (A498) [nM] | GI50 (SR) [nM] | GI50 (HCC-2998) [nM] | GI50 (HS 578T) [nM] | GI50 (SK-MEL-2) [nM] | GI50 (HCT-15) [nM] | GI50 (MOLT-4) [nM] | GI50 (SF-268) [nM] | GI50 (ACHN) [nM] | GI50 (M14) [nM] | GI50 (NCI-H460) [nM] | GI50 (TK-10) [nM] | further results
O=c1cc(-c2ccccc2)oc2cc(OCCCC[P+](c3ccccc3)(c3ccccc3)c3ccccc3)cc(O)c12 [3a] | 167 | 240 | 302 | 976 | 1150 | 368 | 279 | 128 | 422 | 289 | 345 | 306 | 238 | 628 | 338 | 380 | 633 | 378 | 321 | 464 | GI50 (EKVX): 317 nM; GI50 (SF-295): 297 nM; GI50 (CCRF-CEM): 335 nM
Cc1ccc([P+](CCCCOc2cc(O)c3c(=O)cc(-c4ccccc4)oc3c2)(c2ccc(C)cc2)c2ccc(C)cc2)cc1 [3b] | 140 | 320 | 241 | 532 | 684 | 196 | 295 | 123 | 400 | 261 | 380 | 366 | 246 | 311 | 322 | 285 | 265 | 331 | 357 | 313 | GI50 (EKVX): 275 nM; GI50 (SF-295): 215 nM; GI50 (CCRF-CEM): 324 nM
COc1ccc([P+](CCCCOc2cc(O)c3c(=O)cc(-c4ccccc4)oc3c2)(c2ccc(OC)cc2)c2ccc(OC)cc2)cc1 [3c] | 288 | 315 | 423 | 1420 | 852 | 288 | 333 | 248 | 1570 | 300 | 300 | 332 | 301 | 1550 | 453 | 351 | 1280 | 478 | 371 | 1090 | GI50 (EKVX): 462 nM; GI50 (SF-295): 1060 nM; GI50 (CCRF-CEM): 367 nM
O=c1cc(-c2ccccc2)oc2cc(OCCCC[P+](c3ccc(F)cc3)(c3ccc(F)cc3)c3ccc(F)cc3)cc(O)c12 [3d] | 1340 | 1910 | 1650 | 1990 | 3000 | 1420 | 1670 | 1100 | 2070 | 1990 | 1670 | 1980 | 1730 | 1850 | 1900 | 1570 | 3230 | 1750 | 2130 | 1740 | GI50 (EKVX): 2230 nM; GI50 (SF-295): 1520 nM; GI50 (CCRF-CEM): 2310 nM
O=c1cc(-c2ccccc2)oc2cc(OCCCC[P+](C3CCCCC3)(C3CCCCC3)C3CCCCC3)cc(O)c12 [3e] | 184 | 366 | 1340 | 1580 | 1300 | 381 | 505 | 273 | 1690 | 260 | 504 | 838 | 1320 | 1550 | 1010 | 1040 | 1520 | 515 | 957 | 1430 | GI50 (EKVX): 1060 nM; GI50 (SF-295): 1400 nM; GI50 (CCRF-CEM): 477 nM
COc1c(C)cc([P+](CCCCOc2cc(O)c3c(=O)cc(-c4ccccc4)oc3c2)(c2cc(C)c(OC)c(C)c2)c2cc(C)c(OC)c(C)c2)cc1C [3f] | 78 | 258 | 283 | 432 | 335 | 334 | 276 | 64 | 367 | 162 | 297 | 361 | 292 | 345 | 238 | 525 | 371 | 329 | 304 | 427 | GI50 (EKVX): 309 nM; GI50 (SF-295): 240 nM; GI50 (CCRF-CEM): 103 nM
Cc1ccccc1[P+](CCCCOc1cc(O)c2c(=O)cc(-c3ccccc3)oc2c1)(c1ccccc1C)c1ccccc1C [3g] | 180 | 337 | 243 | 1380 | 1720 | 216 | 353 | 148 | 462 | 206 | 239 | 232 | 194 | 1410 | 235 | 279 | 569 | 335 | 243 | 414 | GI50 (SF-295): 648 nM; GI50 (CCRF-CEM): 242 nM
O=c1cc(-c2ccccc2)oc2cc(OCCCC[P+](c3ccccc3)(c3ccccc3)c3ccccn3)cc(O)c12 [3h] | 130 | 906 | 776 | 2040 | 1440 | 418 | 524 | 176 | 1730 | 214 | 445 | 1130 | 758 | 1580 | 424 | 760 | 1640 | 564 | 801 | 1690 | GI50 (EKVX): 1120 nM; GI50 (SF-295): 1360 nM; GI50 (CCRF-CEM): 334 nM
